Patent US6380359B1, “Liposomes comprising peptide antigens derived from X protein of hepatitis B virus” (Mogam Biotechnology Research Institute, priority 1998, dated 2002)
No end group written: not given here.

What was measured:
[1] = test system: T2 cells; assay: Cytotoxicity of peptide-stimulated blood cells (CTL) against T2 cells sensitized by synthesized peptides, Cr51 release; type: cell-based, human; conditions: for Specific cytotoxicity by CTL (%): T2 cells sensitized with 100 μg/ml peptide
Method: That is, blood positive to anti-HBV antibody(value obtained by ELISA: 1.0 or more) is collected from common blood donors, and centrifuged to harvest blood cells. The said peptides added in a concentration of 10 μg/ml to leukocytes remained after removing red blood cells from the blood cells, and incubated at 37° C. in a CO2 incubator maintained to contain 5% CO2. At 2 days after culture, 10 unit of interleukin-2 was added to the culture medium and the cells were further cultivated for 3 days. Then, blood cells having the same MHC were inactivated by mitomycin C and added to the culture medium as stimulating cells. And the peptides and interleukin-2 were added to the medium and the cells were further cultivated for 7 days. Then, it was determined whether the blood cells recognize and destruct T2 cells having a certain peptide at their surface, and the results were shown in Table 3 below and FIG. 2, respectively.
Destruction of T2 cell by cultured blood cell was determined as followings: 100 μg/ml of a peptide was added to T2 cells and reacted at 37° C. for 3 hours. Then, the cells were washed sufficiently to remove unreacted peptides, added with radioactive sodium chromate(Cr^51), and reacted at 37° C. for 2 hours in a CO2 incubator. And then, they were washed with RPMI medium sufficiently to remove unreacted sodium chromate, mixed with blood cells washed with PBS in a certain ratio, and reacted at 37° C. for 4 hours in a CO2 incubator. The resultant medium was collected and measured for intensity of gamma ray to determine cytotoxicity of the blood cells against T2 cell, i.e., target cell.

[2] = test system: p815 cell; assay: Cytotoxicity of T lymphocytes from Balb/C mice immunized with pH-sensitive liposomes comprising HIV peptides, Cr51 release; type: in vivo, Balb/C mouse; conditions: mice immunized with pH-sensitive liposomes (POPE/CHOH 7:3) comprising the peptide
Method: (§1) In order to investigate whether pH-sensitive liposome as a carrier of peptides can induce CTL response specific to the virus from which the peptides are derived, pH-sensitive liposomes encapsulating synthetic peptides were prepared and cytotoxicity study were carried out in a serial manner. Since the cellular immunity of the pepitides which can bind HLA-A2, a human MHC class I molecule should be investigated employing human body, indirect experiment employing the peptides derived HIV and HCV proteins which can bind mouse MHC Class I molecule(see: Table 4 below), was carried out. In this regard, the pH-sensitive liposome comprising the peptides were obtained employing the phospholipid composition consisting of POPE/CHOH(7:3 in a molar ratio). Then, mice were immunized with the liposomes, T lymphocytes were isolated from the mice, and cytotoxicity of the T lymphocytes after recognition of target cells labelled with Cr^51 was determined.
In case of HIV, Balb/C mouse was immunized with pH-sensitive liposomes comprising R15K or T26K, and at 4 weeks after booster immunization, its spleen was dissected and homogenized in 2 ml of RPMI cell culture medium using a homogenizer. 2 ml of the homogenate thus obtained was added to 2 ml of ficoll and centrifuged at 1,500 rpm for 30 minutes. T lymphocytes located between ficoll and the cell culture medium were separated, added to 15 ml of RPMI-10 cell culture medium, centrifuged at 1,000 rpm, and washed three times with the RPMI-10 medium. The T lymphocytes were diluted to a cell concentration of 5×10^6/ ml into a 24 well-plate, and the immunized peptide antigen was added to a final concentration of 2 μM. Then, the cells were cultured at 37° C. for 3 days in a CO2 incubator containing 5% CO2 and used as effector cells. In case of HCV, 5 week-old C57BL/6 mouse was immunized with liposomes comprising DBL peptide antigen, and T lymphocytes were isolated in the same manner as above and used as effector cells. On the other hand, p815 cell(ATCC TIB64) having MHC Class I same as that of Balb/C mouse was used as a target cell in case of HIV, and RMA cell(see: Hosken, N. A. and Bevan, M. J., J. Exp. Med., 175:719(1992)) or EL4 cell(ATCC TIB39) having MHC Class I same as that of C57BL/6 mouse was used as a target cell in case of HCV.
100 μM of the immunized peptide was added to the respective target cells, reacted at 37° C. for 16 hours, and washed twice with RPMI cell culture medium. Then, radioactive sodium chromate(Cr^51) was added to the cells and reacted at 37° C. for 2 hours in a CO2 incubator. After reaction, the cells were washed sufficiently with RPMI cell culture medium to remove unreacted sodium chromate, mixed with effector cells washed with phosphate buffer solution in various mixing ratios shown in table 5 below, and reacted at 37° C. for 4 hours in a CO2 incubator. The resultant medium was collected and measured for the intensity of gamma ray to determine cytotoxicity of effector cells against target cells(see: Table 5).

[3] = test system: RMA cell or EL4 cell; assay: Cytotoxicity of T lymphocytes from C57BL/6 mice immunized with pH-sensitive liposomes comprising HCV peptide, Cr51 release; type: in vivo, C57BL/6 mouse; conditions: mice immunized with pH-sensitive liposomes (POPE/CHOH 7:3) comprising the peptide
Method: as §1
In case of HIV, Balb/C mouse was immunized with pH-sensitive liposomes comprising R15K or T26K, and at 4 weeks after booster immunization, its spleen was dissected and homogenized in 2 ml of RPMI cell culture medium using a homogenizer. 2 ml of the homogenate thus obtained was added to 2 ml of ficoll and centrifuged at 1,500 rpm for 30 minutes. T lymphocytes located between ficoll and the cell culture medium were separated, added to 15 ml of RPMI-10 cell culture medium, centrifuged at 1,000 rpm, and washed three times with the RPMI-10 medium. The T lymphocytes were diluted to a cell concentration of 5×10^6/ ml into a 24 well-plate, and the immunized peptide antigen was added to a final concentration of 2 μM. Then, the cells were cultured at 37° C. for 3 days in a CO2 incubator containing 5% CO2 and used as effector cells. […]
100 μM of the immunized peptide was added to the respective target cells, reacted at 37° C. for 16 hours, and washed twice with RPMI cell culture medium. […] The resultant medium was collected and measured for the intensity of gamma ray to determine cytotoxicity of effector cells against target cells(see: Table 5).

[4] = target: T1, HLA-A2.1, a human MHC Class I molecule (Homo sapiens, UniProt P04439, D140Y/D185E/D98H/E176V/E277Q/G131W/G231S/I119V/I121R/I166T/I218V/L300P/L318F/N151K/N90K/P208A/P217A/Q86G/Q94H/R138H/R169H/T345S); assay: Binding of synthetic peptides to MHC Class I molecules at the surface of T2 cell (BB7.2 antibody, fluorocytometry); type: cell-based; conditions: peptide 1-100 μg/ml, 37° C., 4 hours; FIG. 1
T1 construct: endogenous in cells; host or cells: T2 cell line
Method: Seven different peptides including the peptides as disclosed in Table 1 above which were derived from HBV X protein were synthesized chemically and dissolved in phosphate buffered saline(hereinafter, referred to as “PBS”). In order to investigate whether the peptides can bind to MHC Class I molecules associated with induction of CTL, each peptide was added to T2 cell line in a concentration of 100, 64, 32, 16, 8, 4, 2 and 1 μg/ml, respectively, and reacted at 37° C. for 4 hours. And then, the cells were washed with PBS to remove unreacted peptides, added with BB7.2 antibody against HLA-A2.1, a human MHC Class I molecule, and reacted at 4° C. for 1 hour. The cells were washed with PBS again, added with fluorescein isothiocyanate(FITC)-conjugated anti-mouse immunoglobulin antibody, and reacted at 4° C. for 1 hour. Then, fluorescence of the cells was determined using fluorocytometer(FACScan, BECTON DICKINSON) and the results were shown in FIG. 1.
However, when T2 cells are cultivated in a medium containing peptides which can bind to MHC molecules, the peptides bind to MHC molecules at the surface of T2 cell to increase stability of MHC molecules, which results in increase in expression of MHC molecule. Based on the knowledge, binding of a specific peptide to MHC molecule at the surface of T2 cell can be analyzed by determining degree of binding of BB7.2 antibody to the cell surface.

[5] = Ratio of CTL against target cell 5:1
[6] = Ratio of CTL against target cell 10:1
[7] = Ratio of CTL against target cell 25:1

| Compound | Specific cytotoxicity by CTL (%) [1, 5] | Specific cytotoxicity by CTL (%) [1, 6] | Specific cytotoxicity by CTL (%) [1, 7] | further results |
| --- | --- | --- | --- | --- |
| TLPSPSSSA [×2, TLPSPSSSA] | 5% | 10% | 11% | – |
| CC[C@H](C)[C@H](NC(=O)[C@@H](NC(=O)[C@@H](NC(=O)[C@H](Cc1ccccc1)NC(=O)[C@H](C)NC(=O)[C@H](CCCNC(=N)N)NC(=O)CNC(=O)[C@@H]1CCCN1C(=O)CNC(=O)[C@H](CCCNC(=N)N)NC(=O)[C@H](CCC(N)=O)NC(=O)[C@@H](NC(=O)[C@@H](N)CCCNC(=N)N)[C@@H](C)CC)C(C)C)[C@@H](C)O)C(=O)NCC(=O)N[C@@H](CCCCN)C(=O)O [R15K, RIQRGPGRAFVTIGK] | – | – | – | Specific cytotoxicity by CTL (%) ([2]; target cell:effector cell 1:10): 7.5%; Specific cytotoxicity by CTL (%) ([2]; target cell:effector cell 1:20): 15%; Specific cytotoxicity by CTL (%) ([2]; target cell:effector cell 1:30): 25% |
| DLMGYIPL [D8L, DLMGYIPL] | – | – | – | Specific cytotoxicity by CTL (%) ([3]; target cell:effector cell 1:10): 5.5%; Specific cytotoxicity by CTL (%) ([3]; target cell:effector cell 1:20): 18%; Specific cytotoxicity by CTL (%) ([3]; target cell:effector cell 1:30): 30% |
| CLFKDWEEL (Hepatitis B virus) [×6, peptide derived from HBV X protein, position 115-123] | 11% | 16% | 23% | Binding to MHC Class I molecules at the surface of T2 cell [4]: successfully bind; Recognition of peptide by cultured blood cells (CTL) ([1]; blood cells from anti-HBV antibody positive donors): recognized by cultured blood cells |
| EIRLKVFVL [×7, EIRLKVFVL] | 12% | 19% | 24% | – |
| HLSLRGLFV [×3, HLSLRGLFV] | 10% | 17% | 20% | – |
| CC(C)C[C@H](NC(=O)CNC(=O)[C@H](CC(C)C)NC(=O)[C@@H](NC(=O)[C@H](CCCNC(=N)N)NC(=O)[C@H](CCCCN)NC(=O)[C@H](Cc1c[nH]cn1)NC(=O)[C@H](CC(C)C)NC(=O)[C@@H](N)C(C)C)[C@@H](C)O)C(=O)O [×4, VLHKRTLGL] | 8% | 16% | 21% | – |
| AMSTTDLEA [×5, AMSTTDLEA] | 16% | 24% | 31% | – |
| CC[C@H](C)[C@H](NC(=O)[C@H](CCCNC(=N)N)NC(=O)[C@@H](NC(=O)[C@H](CCCNC(=N)N)NC(=O)[C@H](CCCCN)NC(=O)[C@H](CCCNC(=N)N)NC(=O)[C@@H](NC(=O)[C@H](CC(N)=O)NC(=O)[C@H](CC(N)=O)NC(=O)[C@H](CC(N)=O)NC(=O)[C@@H]1CCCN1C(=O)[C@H](CCCNC(=N)N)NC(=O)[C@@H](N)[C@@H](C)O)[C@@H](C)O)[C@@H](C)CC)C(=O)N[C@@H](CCC(N)=O)C(=O)N[C@@H](CCCNC(=N)N)C(=O)NCC(=O)N1CCC[C@H]1C(=O)NCC(=O)N[C@@H](CCCNC(=N)N)C(=O)N[C@@H](C)C(=O)N[C@@H](Cc1ccccc1)C(=O)N[C@H](C(=O)N[C@H](C(=O)N[C@H](C(=O)NCC(=O)N[C@@H](CCCCN)C(=O)O)[C@@H](C)CC)[C@@H](C)O)C(C)C [T26K] | – | – | – | Specific cytotoxicity by CTL (%) ([2]; target cell:effector cell 1:10): 55%; Specific cytotoxicity by CTL (%) ([2]; target cell:effector cell 1:20): 80%; Specific cytotoxicity by CTL (%) ([2]; target cell:effector cell 1:30): 87% |
| VLCLRPVGA [×1, VLCLRPVGA] | 6% | 11% | 15% | – |
